Laboratory results: patent US9439903B2, “Process for the preparation of amorphous imatinib mesylate” (CADILA HEALTHCARE LIMITED, priority 2012, dated 2016)
Counter-ions that a name gives are not always drawn.

Assays:
Type in all cases: physicochemical
[1] = Stability of amorphous imatinib mesylate, accelerated storage 40° C./75% RH; details: 40° C. ± 2° C./75% ± 5% RH (Accelerated)
Procedure: (§1) The amorphous imatinib mesylate having less than 2.0% water, in particular, having less than 1.7% water, more particularly, water content is in the range of 0.7% to 1.7% as manufactured by the process of the present invention was subjected to stability for at least 6 months at 25° C./60% RH or at about 40° C./75% RH. The following Table-1 and Tabel-2 discloses the stability conditions and results.

[2] = Stability of amorphous imatinib mesylate, real time storage 25° C./60% RH; details: 25° C. ± 2° C./60% ± 5% RH (Real time)
Procedure: as §1

[3] = Hygroscopicity as per Ph. Eur. general chapter 5.11
From the text: In one general aspect, the amorphous imatinib mesylate was subjected to study the hygroscopicity as per the Ph. Eur. general chapter 5.11.

Cc1ccc(NC(=O)c2ccc(CN3CCN(C)CC3)cc2)cc1Nc1nccc(-c2cccnc2)n1 [amorphous imatinib mesylate, Imatinib mesylate]
Description ([1]; 1 Month): Pale yellow | Related substance (%) by HPLC: Impurity-AMPPP ([1]; 1 Month): BQL | Related substance (%) by HPLC: Impurity-MPMBA ([1]; 1 Month): BQL | Related substance (%) by HPLC: Impurity-Methyl Ester analouge ([1]; 1 Month): BQL | Related substance (%) by HPLC: Impurity-NMPPP ([1]; 1 Month): BQL | Related substance (%) by HPLC: Single largest unknown Imp ([1]; 1 Month): 0.03% | Related substance (%) by HPLC: Total Impurities ([1]; 1 Month): 0.04% | Water (%) ([1]; 1 Month): 0.88% | X-Ray Diffraction ([1]; 1 Month): Amorphous | Description ([1]; 2 Month): Pale yellow | Related substance (%) by HPLC: Impurity-AMPPP ([1]; 2 Month): BQL | Related substance (%) by HPLC: Impurity-MPMBA ([1]; 2 Month): BQL | Related substance (%) by HPLC: Impurity-Methyl Ester analouge ([1]; 2 Month): BQL | Related substance (%) by HPLC: Impurity-NMPPP ([1]; 2 Month): BQL | Related substance (%) by HPLC: Single largest unknown Imp ([1]; 2 Month): 0.03% | Related substance (%) by HPLC: Total Impurities ([1]; 2 Month): 0.05% | Water (%) ([1]; 2 Month): 0.89% | X-Ray Diffraction ([1]; 2 Month): Amorphous | Description ([1]; 3 Month): Pale yellow | Related substance (%) by HPLC: Impurity-AMPPP ([1]; 3 Month): BQL | Related substance (%) by HPLC: Impurity-MPMBA ([1]; 3 Month): BQL | Related substance (%) by HPLC: Impurity-Methyl Ester analouge ([1]; 3 Month): BQL | Related substance (%) by HPLC: Impurity-NMPPP ([1]; 3 Month): BQL | Related substance (%) by HPLC: Single largest unknown Imp ([1]; 3 Month): 0.03% | Related substance (%) by HPLC: Total Impurities ([1]; 3 Month): 0.07% | Water (%) ([1]; 3 Month): 0.79% | X-Ray Diffraction ([1]; 3 Month): Amorphous | Description ([1]; 6 Month): Pale yellow | Related substance (%) by HPLC: Impurity-AMPPP ([1]; 6 Month): BQL | Related substance (%) by HPLC: Impurity-MPMBA ([1]; 6 Month): BQL | Related substance (%) by HPLC: Impurity-Methyl Ester analouge ([1]; 6 Month): BQL | Related substance (%) by HPLC: Impurity-NMPPP ([1]; 6 Month): BQL | Related substance (%) by HPLC: Single largest unknown Imp ([1]; 6 Month): 0.03% | Related substance (%) by HPLC: Total Impurities ([1]; 6 Month): 0.07% | Water (%) ([1]; 6 Month): 0.95% | X-Ray Diffraction ([1]; 6 Month): Amorphous | Description ([2]; 1 Month): Pale yellow | Related substance (%) by HPLC: Impurity-AMPPP ([2]; 1 Month): BQL | Related substance (%) by HPLC: Impurity-MPMBA ([2]; 1 Month): BQL | Related substance (%) by HPLC: Impurity-Methyl Ester analouge ([2]; 1 Month): BQL | Related substance (%) by HPLC: Impurity-NMPPP ([2]; 1 Month): BQL | Related substance (%) by HPLC: Single largest unknown Imp ([2]; 1 Month): 0.03% | Related substance (%) by HPLC: Total Impurities ([2]; 1 Month): 0.04% | Water (%) ([2]; 1 Month): 0.72% | X-Ray Diffraction ([2]; 1 Month): Amorphous | Description ([2]; 2 Months): Pale yellow | Related substance (%) by HPLC: Impurity-AMPPP ([2]; 2 Months): BQL | Related substance (%) by HPLC: Impurity-MPMBA ([2]; 2 Months): BQL | Related substance (%) by HPLC: Impurity-Methyl Ester analouge ([2]; 2 Months): BQL | Related substance (%) by HPLC: Impurity-NMPPP ([2]; 2 Months): BQL | Related substance (%) by HPLC: Single largest unknown Imp ([2]; 2 Months): 0.03% | Related substance (%) by HPLC: Total Impurities ([2]; 2 Months): 0.04% | Water (%) ([2]; 2 Months): 0.64% | X-Ray Diffraction ([2]; 2 Months): Amorphous | Description ([2]; 3 Months): Pale yellow | Related substance (%) by HPLC: Impurity-AMPPP ([2]; 3 Months): BQL | Related substance (%) by HPLC: Impurity-MPMBA ([2]; 3 Months): BQL | Related substance (%) by HPLC: Impurity-Methyl Ester analouge ([2]; 3 Months): BQL | Related substance (%) by HPLC: Impurity-NMPPP ([2]; 3 Months): BQL | Related substance (%) by HPLC: Single largest unknown Imp ([2]; 3 Months): 0.03% | Related substance (%) by HPLC: Total Impurities ([2]; 3 Months): 0.05% | Water (%) ([2]; 3 Months): 0.65% | X-Ray Diffraction ([2]; 3 Months): Amorphous | Description ([2]; 6 Months): Pale yellow | Related substance (%) by HPLC: Impurity-AMPPP ([2]; 6 Months): BQL | Related substance (%) by HPLC: Impurity-MPMBA ([2]; 6 Months): BQL | Related substance (%) by HPLC: Impurity-Methyl Ester analouge ([2]; 6 Months): BQL | Related substance (%) by HPLC: Impurity-NMPPP ([2]; 6 Months): BQL | Related substance (%) by HPLC: Single largest unknown Imp ([2]; 6 Months): 0.03% | Related substance (%) by HPLC: Total Impurities ([2]; 6 Months): 0.06% | Water (%) ([2]; 6 Months): 0.69% | X-Ray Diffraction ([2]; 6 Months): Amorphous | hygroscopicity [3]: very hygroscopic
